Test results published in patent US9994905B2, “Methods for the diagnosis and treatment of pulmonary fibrosis in subjects with hermansky pudlak syndrome” (BROWN UNIVERSITY, priority 2014, dated 2018).
Like-named read-outs stand apart in the source and are kept apart here.

Tests used:
CRTH2 = CRTH2 (Mus musculus, UniProt Q9Z2J6); conditions: intratracheal bleomycin, 30 mg/kg IP every other day, Day 5 to Day 14; for bleomycin-induced collagen accumulation: Sircol on Day 14 (FIG. 6D)
Procedure: Sex-matched, 8-wk-old wild-type (WT), pale ear, CHI3L1^−/−, and CHI3L1Tgmice (≥5 mice/group) were exposed to a single bleomycin injection (1.25 U/kg; Teva Parenteral Medicines, Irvine, Calif.) via intratracheal administration. Mice were sacrificed and evaluated at Day 7 and Day 14 to examine apoptosis and fibrosis, respectively.
Animals were anesthetized, median sternotomy was performed, and right heart perfusion completed with calcium and magnesium-free PBS. The heart and lungs were then removed. The right lung was frozen in liquid nitrogen and stored at −80° C. until used. Collagen content was determined by quantifying total soluble collagen using the Sircol Collagen Assay kit (Biocolor, Accurate Chemical & Scientific Co., Westbury, N.Y.) according to the manufacturer's instructions.
Sex-matched, 8-wk-old wild-type (WT), pale ear, and CHI3L1 Tg mice (≥5 mice/group) were exposed to a single bleomycin injection (1.25 U/kg; Teva Parenteral Medicines, Irvine, Calif.) via intratracheal administration. Mice were treated with 30 mg/kg CAY10471 (Cayman Chemical) (IP, every other day) or DMSO control from Day 5 to Day 14.

[1] = tested on: Primary Type II alveolar epithelial cells; assay: Bleomycin-induced apoptosis (TUNEL) in primary Type II alveolar epithelial cells; type: cell-based, mouse; conditions: 500 ng/ml pre-treatment, 100 μg/ml bleomycin (FIG. 5A)
Procedure: End labeling of exposed 3′-OH ends of DNA fragments in paraffin-embedded tissue was undertaken with the TUNEL in situ cell death detection kit AP (Roche Diagnostics). SPC co-staining was performed using a goat anti-mouse SPC primary antibody (Santa Cruz) and Alexa Fluor 594 secondary antibody. After staining, 8-10 random pictures were obtained from each lung, and a minimum of 300 cells were visually evaluated in each section. The labeled cells were expressed as a percentage of total nuclei.
WT and pale ear mouse lungs were digested with collagenase and DNase I. The resulting suspension was filtered through Falcon cell strainers, and the cells were negatively selected with anti-CD16/CD32 antibodies. Cells were maintained in BEGM+5% charcoal-stripped FBS and 10 ng/ml KGF. A549 cells were obtained from the American Type Culture Collection (ATCC, Manassas, Va.) and maintained in DMEM+2 mM glutamine+10% FBS. Primary Type II Cells were pre-treated with 500 ng/ml recombinant CHI3L1, transfected with IL-13Rα2 construct, and stimulated with 100 μg/ml bleomycin. In A549 cells, HPS1, HPS4, Rab32, and Rab38 siRNA were co-transfected with IL-13Rα2 construct, and stimulated with 100 μg/ml bleomycin. Cells were cytospun onto slides. Immunofluorescence and/or TUNEL staining were performed as previously described.

Chain of CRTH2 (Q9Z2J6 whole entry): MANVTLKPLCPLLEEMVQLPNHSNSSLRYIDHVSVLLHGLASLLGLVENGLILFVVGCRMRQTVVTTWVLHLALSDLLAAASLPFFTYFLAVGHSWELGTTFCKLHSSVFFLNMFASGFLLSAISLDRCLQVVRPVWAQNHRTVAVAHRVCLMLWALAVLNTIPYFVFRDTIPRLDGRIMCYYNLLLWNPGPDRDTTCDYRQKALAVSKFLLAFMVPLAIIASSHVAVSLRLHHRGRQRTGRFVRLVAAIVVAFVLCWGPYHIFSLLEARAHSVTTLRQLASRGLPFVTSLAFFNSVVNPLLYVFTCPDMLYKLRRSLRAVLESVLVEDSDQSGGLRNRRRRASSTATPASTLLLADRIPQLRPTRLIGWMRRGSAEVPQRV

Compound	exaggerated fibrosis caused by CHI3L1 transgene activation during fibroproliferative repair (CRTH2; CHI3L1 Tg mice, Sircol on Day 14 (FIG. 6E))	bleomycin-induced collagen accumulation (CRTH2; HPS1 null (pale ear) mice)	bleomycin-induced collagen accumulation (CRTH2; WT mice)	bleomycin-induced apoptosis (TUNEL-positive cells) ([1]; cells from WT mice)	bleomycin-induced apoptosis (TUNEL-positive cells) ([1]; cells from pale ear mice)
CN(C1CCc2c(c3ccccc3n2CC(=O)O)C1)S(=O)(=O)c1ccc(F)cc1 (centres unmarked) [CAY10471]	abrogated	decreased	decreased	–	–
Recombinant CHI3L1: recombinant chitinase 3-like-1 protein	–	–	–	powerful inhibitor	did not decrease
